Results on 10 compounds are retold here after patent publication US20250034182A1, “PHOSPHOLIPID COMPOUNDS AND METHODS OF MAKING AND USING THE SAME” (priority 2021, published 2025).

The experiment has as its system dengue virus type 2 in Huh7 hepatoblastoma cells. As to the kind of experiment: Dengue Virus-2 Huh-7 EC50 (Example W). To be noted: MOI of 0.07, CPE, neutral red dye, read-out: Dengue Virus-2 Huh-7 EC50 (nM) (per Ex. W). It counts as cell-based. On the procedure: Huh7 hepatoblastoma cells were seeded onto 96-well plates and incubated at 37° C. with 5% CO2 overnight. The plates were seeded at a cell concentration that will yield >70% confluent monolayers in each well after overnight incubation. Eight 3-fold serial dilutions of compounds were diluted in test media (MEM supplemented with 2% FBS and 50 μg/mL gentamicin). The highest test compound concentration was 50 μg/mL. 100 μL of each concentration was added to 5 test wells on the 96-well plate. Of these 5 test wells, 3 wells of each dilution were infected with dengue virus type 2, diluted in test media (approximately 2000 CCID50 per well for an MOI of 0.07). Test medium (100 μL) with no virus was added to 2 wells to represent the uninfected cytotoxicity controls. Six additional infected wells received 100 μL media alone as untreated virus controls. Further, 100 μL of media alone was added to 6 uninfected wells to serve as uninfected, untreated controls. Cultures were incubated at 37° C.+5% CO2 until >80% CPE is observed. After cytopathic effect (CPE) is observed microscopically, 0.011% neutral red dye was added for approximately 2 hours. The neutral red dye was removed and wells were rinsed once with PBS to remove residual, unincorporated dye. A 50:50 Sorensen citrate buffer/ethanol solution was added and incubated at room temperature for >30 minutes with agitation, followed by measurement of neutral red dye using a spectrophotometer at 540 nm. The resulting optical density measurement was converted to percent signal of the infected, untreated cell control normalizing to virus controls. EC50 and CC50 values were determined by linear regression analysis.
With `CCCCCCCCCCCCCCCCCCOC[C@H](COP(=O)(O)OC[C@@]1(C#N)O[C@@H](c2ccc3c(N)ncnn23)[C@H](O)[C@@H]1O)OCc1ccc(C#N)c(-n2cncn2)c1` [Compound 16, ((2R,3S,4R,5S)-5-(4-aminopyrrolo[2,1-f][1,2,4]triazin-7-yl)-2-cyano-3,4-dihydroxytetrahydrofuran-2-yl)methyl ((R)-2-((4-cyano-3-(1H-1,2,4-triazol-1-yl)benzyl)oxy)-3-(octadecyloxy)propyl) hydrogen phosphate], the EC50 – broadly, the concentration giving half of the maximal effect – turned out to be 3900 nM. As for `CCCCCCCCCCCCCCCCCCOC[C@H](COP(=O)(O)OC[C@@]1(C#N)O[C@@H](c2ccc3c(N)ncnn23)[C@H](O)[C@@H]1O)OCc1ccc(C#N)nc1` [Compound 19, ((2R,3S,4R,5S)-5-(4-aminopyrrolo[2,1-f][1,2,4]triazin-7-yl)-2-cyano-3,4-dihydroxytetrahydrofuran-2-yl)methyl ((R)-2-((6-cyanopyridin-3-yl)methoxy)-3-(octadecyloxy)propyl) hydrogen phosphate], the figure is 6600 nM; as for `CCCCCCCCCCCCCCCCCC[C@@H](COP(=O)(O)OC[C@@]1(C#N)O[C@@H](c2ccc3c(N)ncnn23)[C@H](O)[C@@H]1O)OCc1cc(F)cc(C#N)c1` [Compound 37, ((2R,3S,4R)-5-(4-aminopyrrolo[2,1-f][1,2,4]triazin-7-yl)-2-cyano-3,4-dihydroxytetrahydrofuran-2-yl)methyl ((S)-2-((3-cyano-5-fluorobenzyl)oxy)icosyl) hydrogen phosphate], 11000 nM; as for `CCCCCCCCCCCCCCCCCCC[C@H](COP(=O)(O)OC[C@@]1(C#N)O[C@@H](c2ccc3c(N)ncnn23)[C@H](O)[C@@H]1O)Oc1cc(OC)c(C#N)c(OC)c1` [Compound 39, ((2R,3S,4R,5S)-5-(4-aminopyrrolo[2,1-f][1,2,4]triazin-7-yl)-2-cyano-3,4-dihydroxytetrahydrofuran-2-yl)methyl ((R)-2-(4-cyano-3,5-dimethoxyphenoxy)henicosyl) hydrogen phosphate], 9100 nM. On to `CCCCCCCCCCCCCCCCCCCC[C@H](COP(=O)(O)OC[C@@]1(C#N)O[C@@H](c2ccc3c(N)ncnn23)[C@H](O)[C@@H]1O)Oc1cccc(C#N)c1` [Compound 51, ((2R,3S,4R,5S)-5-(4-aminopyrrolo[2,1-f][1,2,4]triazin-7-yl)-2-cyano-3,4-dihydroxytetrahydrofuran-2-yl)methyl ((R)-2-(3-cyanophenoxy)docosyl) hydrogen phosphate], for which the EC50 came to 11000 nM.

Take `CCCCCCCCCCCCCCCCCOC[C@H](COP(=O)(O)OC[C@@]1(C#N)O[C@@H](c2ccc3c(N)ncnn23)[C@H](O)[C@@H]1O)OCc1cc(F)cc(C#N)c1` [Compound 53, ((2R,3S,4R,5S)-5-(4-aminopyrrolo[2,1-f][1,2,4]triazin-7-yl)-2-cyano-3,4-dihydroxytetrahydrofuran-2-yl)methyl ((R)-2-((3-cyano-5-fluorobenzyl)oxy)-3-(heptadecyloxy)propyl) hydrogen phosphate]: the EC50 amounted to 9900 nM. As to `CCCCCCCCCCCCCCCCCCCC[C@@H](COP(=O)(O)OC[C@@]1(C#N)O[C@@H](c2ccc3c(N)ncnn23)[C@H](O)[C@@H]1O)OCc1cc(F)cc(C#N)c1` [Compound 70, ((2R,3S,4R)-5-(4-aminopyrrolo[2,1-f][1,2,4]triazin-7-yl)-2-cyano-3,4-dihydroxytetrahydrofuran-2-yl)methyl ((S)-2-((3-cyano-5-fluorobenzyl)oxy)docosyl) hydrogen phosphate], the EC50 was 12000 nM. Regarding `CCCCCCCCCCCCCCCCCCOC[C@H](COP(=O)(O)OC[C@@]1(C#N)O[C@@H](c2ccc3c(N)ncnn23)[C@H](O)[C@@H]1O)OCc1ccc(C#N)cc1OC` [Compound 73, ((2R,3S,4R)-5-(4-aminopyrrolo[2,1-f][1,2,4]triazin-7-yl)-2-cyano-3,4-dihydroxytetrahydrofuran-2-yl)methyl ((R)-2-((4-cyano-2-methoxybenzyl)oxy)-3-(octadecyloxy)propyl) hydrogen phosphate], the EC50 is 9500 nM. For `CCCCCCCCCCCCCCCCC[C@@H](COP(=O)(O)OC[C@@]1(C#N)O[C@@H](c2ccc3c(N)ncnn23)[C@H](O)[C@@H]1O)OCc1cc(F)cc(C#N)c1` [Compound 74, ((2R,3S,4R)-5-(4-aminopyrrolo[2,1-f][1,2,4]triazin-7-yl)-2-cyano-3,4-dihydroxytetrahydrofuran-2-yl)methyl ((S)-2-((3-cyano-5-fluorobenzyl)oxy)nonadecyl) hydrogen phosphate] the value was 10000 nM. Consider `CCCCCCCCCCCCCCOC[C@H](COP(=O)(O)OC[C@@]1(C#N)O[C@@H](c2ccc3c(N)ncnn23)[C@H](O)[C@@H]1O)OCc1ccc(C#N)cc1F` [Compound 75, ((2R,3S,4R,5S)-5-(4-aminopyrrolo[2,1-f][1,2,4]triazin-7-yl)-2-cyano-3,4-dihydroxytetrahydrofuran-2-yl)methyl ((R)-2-((4-cyano-2-fluorobenzyl)oxy)-3-(tetradecyloxy)propyl) hydrogen phosphate], for which the EC50 is 23000 nM.
